Test results: PubChem BioAssay AID652241 (Broad Institute, 2013)
Results filed as inconclusive are left out. Activity calls are given as the source filed them.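 Rule for the calls: active = fitted curve reaches activity 50 in the expected rising direction at or below the top valid tested dose; inconclusive = no clear call, values can overlap the other calls; inactive = activity in the wrong direction, and the rest.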

Target: Virion infectivity factor (Human immunodeficiency virus type 1 group M subtype B (isolate BH10)) + Virion infectivity factor (Human immunodeficiency virus type 1 group M subtype B (isolate BRU/LAI)) + Virion infectivity factor (Human immunodeficiency virus type 1 group M subtype B (isolate PCV12)) + Virion infectivity factor (Human immunodeficiency virus type 1 group M subtype B (isolate HXB2)) (UniProt P69720+P69721+P69722+P69723)
Experiment: Vif multimerization inhibitor potency, dose response, imaging, HEK293T, cherry-picks (AID 652241);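 note: imaged cell signal that rises when Vif self-association is disrupted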
Conditions: 24 h

Sequence of Virion infectivity factor (Human immunodeficiency virus type 1 group M subtype B (isolate BH10)) + Virion infectivity factor (Human immunodeficiency virus type 1 group M subtype B (isolate BRU/LAI)) + Virion infectivity factor (Human immunodeficiency virus type 1 group M subtype B (isolate PCV12)) + Virion infectivity factor (Human immunodeficiency virus type 1 group M subtype B (isolate HXB2)) (P69720 whole entry, looked up): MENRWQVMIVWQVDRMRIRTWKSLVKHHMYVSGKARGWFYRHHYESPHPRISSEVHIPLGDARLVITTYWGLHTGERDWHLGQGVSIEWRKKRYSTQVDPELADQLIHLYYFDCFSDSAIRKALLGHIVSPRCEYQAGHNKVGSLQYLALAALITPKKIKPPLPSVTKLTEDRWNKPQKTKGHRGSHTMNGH
Sequence of Virion infectivity factor (Human immunodeficiency virus type 1 group M subtype B (isolate BH10)) + Virion infectivity factor (Human immunodeficiency virus type 1 group M subtype B (isolate BRU/LAI)) + Virion infectivity factor (Human immunodeficiency virus type 1 group M subtype B (isolate PCV12)) + Virion infectivity factor (Human immunodeficiency virus type 1 group M subtype B (isolate HXB2)) (P69721 whole entry, looked up): as the sequence (P69720 whole entry, looked up) above
Sequence of Virion infectivity factor (Human immunodeficiency virus type 1 group M subtype B (isolate BH10)) + Virion infectivity factor (Human immunodeficiency virus type 1 group M subtype B (isolate BRU/LAI)) + Virion infectivity factor (Human immunodeficiency virus type 1 group M subtype B (isolate PCV12)) + Virion infectivity factor (Human immunodeficiency virus type 1 group M subtype B (isolate HXB2)) (P69722 whole entry, looked up): as the sequence (P69720 whole entry, looked up) above
Sequence of Virion infectivity factor (Human immunodeficiency virus type 1 group M subtype B (isolate BH10)) + Virion infectivity factor (Human immunodeficiency virus type 1 group M subtype B (isolate BRU/LAI)) + Virion infectivity factor (Human immunodeficiency virus type 1 group M subtype B (isolate PCV12)) + Virion infectivity factor (Human immunodeficiency virus type 1 group M subtype B (isolate HXB2)) (P69723 whole entry, looked up): as the sequence (P69720 whole entry, looked up) above

SMILES	AC50	activity, higher = inhibition (at 19.5 µM (top of the series))	also measured
COc1ccc(-c2ccc3c(N)c(C(=O)c4ccc(OC)c(OC)c4)sc3n2)cc1	> 19.5 µM (inactive)		
COc1ccc(C=C2CS(=O)(=O)CC(=Cc3ccc(OC)cc3)C2=O)cc1		inactive	
CC(C)CC(=O)Nc1ccc(-c2nnn(CC(=O)NCc3ccco3)n2)cc1		inactive	
COc1ccc(CN(CC(=O)NC2CCCC2)C(=O)CN2C(=O)COc3ccccc32)cc1		inactive	
Cc1ccc(Nc2nc(N)nc(CSc3nnc(-c4ccncc4)o3)n2)cc1		inactive	
COc1ccc2cc(CCNS(=O)(=O)c3ccc(NC(C)=O)cc3)c(=O)[nH]c2c1		inactive	
NS(=O)(=O)c1ccc(NC(=O)CCC(=O)N2CCOCC2)cc1		inactive	
COc1ccc([C@H]2CC(=O)C=C(c3cc4ccccc4s3)C2)cc1		inactive	
Cc1ccc(CNCCCSc2ncccn2)cc1		inactive	
CCN(CC)C1Oc2cc3c(cc2C(c2cc(OC)c(OC)c(OC)c2)C1C)OCO3 (stereo not drawn)	6.24 µM		
S=C(NC1CC1)N1CCc2ccccc2C1		inactive	
O=C(c1cc(COc2cccc3cccnc23)on1)N1CCC[C@H]1CO		inactive	
C=CCNc1ncnc2c1ncn2C1OC(CO)C(O)C1O (stereo not drawn)	5.47 µM		
CCOc1cccc(C(=O)Nc2ccc3oc(Cc4ccc(Cl)cc4)nc3c2)c1		inactive	
COc1c2ccoc2nc2c(OC)c(OC[C@@H](O)C(C)(C)O)ccc12		inactive	
COc1cc2ccccc2cc1C(=O)Nc1ccc(Cl)cn1	13 µM		
C=CCNc1sc(C(=O)c2ccc(Br)s2)c(N)c1C#N		inactive	
N#CC(C(=O)NCCc1ccccc1)c1nc2ccccc2nc1N1CCOCC1 (stereo not drawn)		inactive	
Cc1ccnc(NC(=O)CCCOc2cc(=O)n(C)c3ccccc23)c1	1.79 µM		
CC(C)n1nc(C(=O)Nc2ccc(-n3cnnn3)cc2)c2ccccc2c1=O		inactive	
CCCn1c(=O)c(C(=O)Nc2ncccc2O)c(O)c2ccccc21		inactive	
CCN(CC(=O)Nc1c(F)cccc1F)C(=O)c1cccc(-n2cccc2)c1		inactive	
Clc1ccc(-n2nnnc2Sc2ncnc3sccc23)cc1	> 6.8 µM (inactive)		
CCN1CCc2c(sc(N)c2C(N)=O)C1		inactive	

SMILES	AC50	activity, higher = inhibition (at 19.5 µM (top of the series))	also measured
O=C(CSc1nnc(CNc2ccc(F)cc2)o1)c1ccccc1		inactive	
Cc1cnc(NC(=O)CN2CCN(c3ccccn3)CC2)s1	9.23 µM		
COc1ccc(CNC(=O)Nc2cccs2)cc1OC		inactive	
COc1ccc(-c2cc(N)n(S(=O)(=O)c3c(F)c(F)c(F)c(F)c3F)n2)cc1OC	13.4 µM		
CC(C)CC(NC(=O)C1CCCCC1)C(=O)N1CCC2(CC1)OCCO2 (stereo not drawn)		inactive	
COc1cc(NC(=O)c2ccc(-c3csc(C)n3)cc2)c(OC)cc1Cl	10.3 µM		
CCn1c(/C=C/c2ccc(F)cc2)nc2ccccc2c1=O		inactive	
O=C(NCc1cccnc1)NC1(C(F)(F)F)Oc2ccc(Cl)cc2O1 (stereo not drawn)	9.05 µM		
COc1ccc(CN(C(=O)Cn2nnc(-c3ccc(C)o3)n2)C(C(=O)NCC2CCCO2)c2ccco2)cc1 (stereo not drawn)		inactive	
O=C(NC1(C(F)(F)F)Oc2ccc(Cl)cc2O1)N1CCC2(CC1)OCCO2 (stereo not drawn)	7.65 µM		
COc1cc(C(C)=O)ccc1OCC(=O)NCC1(N2CCCCC2)CCCCC1		inactive	
CCOc1ccc(Nc2nc3c(C)cccc3cc2C#N)cc1	11.9 µM		
O=C(c1cc(-c2ccccc2O)on1)N1CCCCCC1		inactive	
COc1cc2c3nnc(-c4ccc(F)cc4)c-3cn(Cc3ccc(F)cc3)c2cc1OC			activity, higher = inhibition (at 6.8 µM (top of the series)): inactive
FC(F)(F)c1nnc2c3ccccc3c(Cl)nn12	12.5 µM		
COc1ccc(CC(=O)OCC(=O)Nc2cccc(Br)c2)cc1		inactive	
COc1ccc(C(=O)c2sc3nc(C)cc(-c4cccs4)c3c2N)cc1OC			activity, higher = inhibition (at 6.8 µM (top of the series)): inactive
COc1ccc(S(=O)(=O)Nc2cc3c(C(C)=O)c(C)oc3c3ccccc23)cc1	9.23 µM		
COc1cc(NC(=O)NCc2ccco2)ccc1-c1ccc(NC(=O)NCc2ccco2)cc1OC		inactive	
COc1ccc(/C=C/C(=O)c2cc(F)ccc2OC(=O)c2ccccc2OC)cc1OC	1.33 µM		
CCOC(=O)C1CCN(S(=O)(=O)c2cccc(-c3cn4cc(C)ccc4n3)c2)CC1		inactive	
COc1ccccc1-c1cccc2nccn12		inactive	
CCOC(=O)C1=C(C)NC(=O)NC1		inactive	
COc1cc(C2c3cc4c(cc3CC3COC(=O)C32)OCO4)cc(OC)c1OC (stereo not drawn)	9.81 µM		
